Source: US8329681B2, “Methods and compositions for the efficient delivery of therapeutic agents to cells and animals” (University of Massachusetts, priority 2005, dated 2012)

Legend:
[1] = test system: FL83B cells; assay: Transfection of pSV-β-gal plasmid, β-galactosidase reporter activity; type: cell-based, rat
Method: Cationic lipids and the co-lipids in chloroform were dried under a stream of N2 gas and vacuum-desiccated for a minimum of 6 h to remove residual organic solvent. The dried lipid film was hydrated in sterile deionized water at cationic lipid concentration of 1 mM for a minimum of 12 h. Liposomes were vortexed to remove any adhering lipid film and probe sonicated until a clear translucent solution is formed. The pDNA solution was added to the liposomes, mixed properly by pipeting and shaken on a rotary shaker (15-30 mins.) before use.
Cells were seeded at a density of 20,000 (for HeLa cells), 16,000 (for A-549 cells), 8,000 (for FL83B cells) per well in a 96-well plate 18-24 h before transfection. An amount of 0.30 μg of pDNA was complexed with varying amounts of lipids (to give +/− ratios of 0.3:1, 1:1, 3:1 and 9:1) in plain OPTIMEM (total volume made up to 100 μl) and then shaken on a rotary shaker at room temperature for 20-30 minutes. The complexes were then added to the cells. After 5 h of incubation, 200 μl of complete medium containing 10% FBS in DMEM for HeLa and 10% FBS in F-12K for FL83B and A549 was added to the cells. The medium was changed after 24 h and the reporter gene activity was estimated 48 h after transfection. Cells were washed with PBS (100 μl) and lysed in […] lysis buffer (5× reporter lysis buffer diluted to 1×, working concentration). The β-galactosidase activity per well was estimated by adding 50 μl of 2× substrate solution (1.33 mg/ml of ONPG, 0.2 M sodium phosphate, pH 7.15 and 2 mM magnesium chloride) to the lysate in a 96-well plate. Absorbance of the product ortho-nitrophenol was measured at 420 nm. The absorbance values reported are the average values from two replicate experiments performed in the same plate on the same day. Each transfection experiment was performed three times on three different days to control for variations in transfection efficiency.
Briefly, the efficacy of various lipid formulations were tested in three cell lines A-549, FL83B and HeLa cells and the transfection efficiencies of the cationic liposomal formulations were compared with a commercially available transfection reagent (e.g., Lipofectamine 2000).

[2] = test system: CDK9 expression; assay: Liposome-mediated CDK9 siRNA gene knock-down in FL83B cells, real-time RT-PCR; type: cell-based, rat; settings: CDK9 siRNA transfected with liposome
Method: Total RNA was extracted from tissues or cultured cells using Trizol (Invitrogen, Carlsbad, Calif.), and real-time RT-PCR for CDK9 and GAPDH mRNA quantification was carried out using 200 ng of total RNA and the QuantiTect SYBR Green RT-PCR Kit (Qiagen, Valencia, Calif.) according to the manufacturer's instructions. The ratio of CDK9 and GAPDH mRNA was calculated and expressed as a group average relative to the control group. The specific probe for detection of CDK9 mRNA levels was designed to the following regions of the CDK9 mRNA ORF, the forward primer 5′ TCGGACCAA AGCCTCACCGTATAA 3′, the reverse primer 5′ […] TTG 3′
FL83B were cultured in F-12K medium (ATCC, Manassas, Va.) with 10% fetal bovine serum at 37° C. in 5% CO2. FL83B were plated on 6-well plates at 70% confluency 24 hours before transfection. […] Gene silencing was monitored by Real-time RT-PCR.
The complexes of CDK9 siRNA (2 μg) and DOATP-Chol (10 μg) or DMTAP-Chol (10 μg) or Transfast-Chol […] were added to Opti-MEM I medium and cells were incubated in the mixture for 6 hr. […] RNA was extracted from cells using Trizol Reagent and real-time RT-PCR for CDK9 and GAPDH mRNA quantification was carried out using 200 ng of total RNA and the QuantiTect SYBR Green RT-PCR Kit. The ratio of CDK9 and GAPDH mRNA was calculated and expressed as a group average relative to the control group. […]

[3] = Tissue distribution of Cy3-labeled siRNA by fluorescence microscopy; type: in vivo, BALB/c mice; settings: 24 h after injection
Method: Freshly excised tissues were frozen in liquid nitrogen and mounted for crytostat sectioning. Sections of 5 μm were fixed with in 100% acetone at 4° C. for 10 min, air-dried and mounted in Vectashild with DAPI (Vector Laboratories, Inc. Burlingame, Calif.). Slides were viewed and recorded under Leica confocal microscope.
Male BALB/c mice, 6-8 weeks of age and weighting 20-22 g, were purchased form the Jackson Laboratory (Bar Harbor, Me.). Synthetic siRNA were delivered in vivo using following method. For each mice 25 μg of siRNA in 100 μl of HEPES Buffered Saline (20 mM HEPES, 150 mM NaCl, pH 7.4) was transferred into a sterile tube. In a separate sterile tube 125 μg of liposome was mixed with 200 μl HEPES Buffered Saline. The siRNA solution was transferred to the tube containing liposome solution and then incubated at room temperature for 20 minutes. 200 μl of the complexes was injected via the tail vein, using a 1-ml syringe and 27-gauge needle. The injection was repeated 4 and 8 h later. Control mice were injected with an equal volume of liposome. At 24 h after the last injection, the mice were sacrificed and tissues were harvested for further analysis. […]
The tissue distribution patterns of siRNA delivered in BALB/c mice using DOTAP-Chol were assessed by fluorescence microscopy.

## CCCCCCCCC=CCCCCCCCC(=O)OC(COC(=O)CCC(=O)OC1CCC2(C)C(=CCC3C2CCC2(C)C(C(C)CCCC(C)C)CCC32)C1)C[N+](C)(C)C.[I-] (centres unmarked) [Lipid 8, N,N,N-Trimethyl-N-[2-(9(Z)-octadecanoyloxy),3-succinyloxy(4-cholesteryloxy)-propyl]ammonium iodide]
[1]; alone, lipid:DNA charge ratios 1:1 and 0.3:1
  transfection efficiency compared with Lipofectamine 2000: one fold less
[1]; in combination with DOPC, charge ratio 9.0:1.0 to 0.3:1.0
  transfection efficiency compared with Lipofectamine 2000: about two fold less
[1]; in combination with DOPE, charge ratio 3:1
  transfection efficiency, fold less than Lipofectamine 2000: more than 1.5 fold
[2]
  knockdown of CDK9 expression: 67%
[3]
  tissues with the highest fluorescent intensity of delivered Cy3-labeled siRNA: the spleen, the lung and the liver
